Assay results as given in patent US12486274B2, “Substituted pyrazolo-pyrimidines and uses thereof” (Verge Analytics, Inc., priority 2020, dated 2025).
pEC50, pIC50: −log10 of the molar value.

Tests used:
[1] = tested on: C9 iPSC MN (ALS patient derived motor neurons); test: iPSC MN Survival assay; type: cell-based, human; details: for pEC50: Homo sapiens, iPSC, 144 h, motor neurons in nutrient deprived media (HBSS), six days, GFP imaging, read-out: C9 iPSC MN Significant survival rescue EC50; for C9 iPSC MN Survival hazard ratio: maximal reduction in hazard ratio vs control (Cox regression), <1.0 indicates increased survival
Protocol: [The source words this procedure for another variant and reports this variant under the same test.] iPSC MN Survival assay: Fibroblasts from ALS patients with known SOD1 A4V mutation were reprogrammed into inducible pluripotent stem cells (iPSC) and then differentiated to motor neurons. In culture, ALS patient derived motor neurons show increased death rate compared to motor neurons derived from healthy individuals in a stressed condition (nutrient deprived media, Hank's buffered salt solution-HBSS).
Cell rescue was measured following more than two different concentrations of each compound for six days with greater than four replicates in a 96-well format to ensure studies with power >0.8. Cells are transduced with a GFP reporter and imaged once a day to track survival. A broad-spectrum caspase inhibitor served as the positive control.
Microscopy image-based readout: Cells are transduced with a GFP reporter and imaged once a day with a blue laser to track survival. Imagers used include the Biotek Cytation 5 and Thermo Fisher EVOS Auto FL 2. All Images undergo uniform processing consisting of rolling hat background subtraction and contrast adjustment.
Cells are identified by their shape and each cell is tracked across images and time points for each well. Survival is visually assessed from the Kaplan-Meier curves. Survival of the cells is modeled and tested using a mixed effects Cox regression where each well is modeled as the random effect, and the group (control/treatment) as the fixed effect. Hazard ratios between treatment and control are estimated within the Cox regression where a value of 1.0 denotes no change, values >1.0 indicate decreased survival in response to treatment, and values <1.0 indicate increased survival in response to treatment. Data are presented as the maximal reduction in hazard ratio scores measured at various concentrations.

[2] = tested on: HEK 293T transfected with plasmids containing TDP-43 Q331K mutation; test: HEK/TDP Survival assay (Cell-Titer-Glo); type: cell-based; details: Homo sapiens; HEK 293T TDP-43 Q331K, 48 hrs, CTG readout
Protocol: HEK/TDP Survival assay: Immortalized human embryonic kidney 293T (HEK 293T) were transfected with plasmids containing TDP-43 Q331K mutation, resulting in an increase in cell death that is biologically relevant to ALS patients. Cell death is measured as reductions in the amount of ATP, an indicator of metabolically active cells, that is quantified by a luminescence Cell-Titer-Glo® (CTG) reagent. Compounds are evaluated in this model for changes in CTG compared to no treatment group. Increased signal indicates improved survival (rescue) and decreased signal indicates decreased survival.
Cell rescue was measured in a 96-well format with eight different concentrations of the test compound over 48 hrs with 6 replicates. The Promega Cell-Titer-Glo® Luminescent Cell Viability Assay was used to quantify ATP, an indicator of metabolically active cells (see protocol: https://www.promega.com/-/media/files/resources/protocols/technical-manuals/101/celltiterglo-2-O-assay-protocol.pdf?la=en). The luminescence signal was detected using the PerkinElmer En Vision or Molecular Devices SpectraMax.
The effect of a compound at a given dose on cell viability was determined using a three step procedure. First, Hedge's g for the Cell Titer-Glo luminescence values using six untreated wells on every plate as a control was calculated. […] Finally, values from all compound-dose pairs were corrected for multiple hypothesis testing using the Empirical Bayes framework of Stephens, M. (False discovery rates: a new deal, Biostatistics, 18 [2], 2017, 275-294) yielding credible intervals for the measured effect and associated s values.
Briefly, this method computes a local false sign rate for each experiment. Analogous to the local false discovery rate of Efron, B. (Size, power and false discovery rates, Ann. Statist. 35 [4], 2007, 1351-1377) this value measures the confidence in the sign of each effect (rather than confidence in each effect being non-zero). The s values reported in the previous figures are the expected fraction of errors if estimating the sign of all effects with greater absolute local false sign rate, defined in analogy to the q value of Storey, JD (The positive false discovery rate: a Bayesian interpretation and the q-value, Ann. Statist. 31 [6] 2003, 2013-2035).
Drugs that yielded signed log s values greater than 3 were considered hits. This threshold was determined by a separate calibration experiment in which Cell Titer-Glo® was measured in blank plates consisting of untreated cells to assess the noise inherent in the assay. Data are presented as the maximal effect of rescue obtained from the dose-response curve.

[3] = target: Full length human recombinant PIKFYVE (Homo sapiens (Human), UniProt Q9Y2I7); test: Inhibition of PIKfyve (microfluidic electrophoresis kinase assay); type: biochemical; details: 2 nM enzyme, PI3P/PS substrate, 3 h at room temperature, 12 concentrations
In short: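 GST-tagged full-length PIKfyve (baculovirus-expressed, 2 nM final) with fluorescent PI3P/PS substrate (1 μM PI3P) and […] in HEPES pH 7.5 with Mg2+/Mn2+, 1% DMSO, 3 h at room temperature; 12 concentrations. PI(3,5)P product and substrate separated by microfluidic electrophoresis; % inhibition from product/sum ratio.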

Full length human recombinant PIKFYVE, sequence (Q9Y2I7 whole entry): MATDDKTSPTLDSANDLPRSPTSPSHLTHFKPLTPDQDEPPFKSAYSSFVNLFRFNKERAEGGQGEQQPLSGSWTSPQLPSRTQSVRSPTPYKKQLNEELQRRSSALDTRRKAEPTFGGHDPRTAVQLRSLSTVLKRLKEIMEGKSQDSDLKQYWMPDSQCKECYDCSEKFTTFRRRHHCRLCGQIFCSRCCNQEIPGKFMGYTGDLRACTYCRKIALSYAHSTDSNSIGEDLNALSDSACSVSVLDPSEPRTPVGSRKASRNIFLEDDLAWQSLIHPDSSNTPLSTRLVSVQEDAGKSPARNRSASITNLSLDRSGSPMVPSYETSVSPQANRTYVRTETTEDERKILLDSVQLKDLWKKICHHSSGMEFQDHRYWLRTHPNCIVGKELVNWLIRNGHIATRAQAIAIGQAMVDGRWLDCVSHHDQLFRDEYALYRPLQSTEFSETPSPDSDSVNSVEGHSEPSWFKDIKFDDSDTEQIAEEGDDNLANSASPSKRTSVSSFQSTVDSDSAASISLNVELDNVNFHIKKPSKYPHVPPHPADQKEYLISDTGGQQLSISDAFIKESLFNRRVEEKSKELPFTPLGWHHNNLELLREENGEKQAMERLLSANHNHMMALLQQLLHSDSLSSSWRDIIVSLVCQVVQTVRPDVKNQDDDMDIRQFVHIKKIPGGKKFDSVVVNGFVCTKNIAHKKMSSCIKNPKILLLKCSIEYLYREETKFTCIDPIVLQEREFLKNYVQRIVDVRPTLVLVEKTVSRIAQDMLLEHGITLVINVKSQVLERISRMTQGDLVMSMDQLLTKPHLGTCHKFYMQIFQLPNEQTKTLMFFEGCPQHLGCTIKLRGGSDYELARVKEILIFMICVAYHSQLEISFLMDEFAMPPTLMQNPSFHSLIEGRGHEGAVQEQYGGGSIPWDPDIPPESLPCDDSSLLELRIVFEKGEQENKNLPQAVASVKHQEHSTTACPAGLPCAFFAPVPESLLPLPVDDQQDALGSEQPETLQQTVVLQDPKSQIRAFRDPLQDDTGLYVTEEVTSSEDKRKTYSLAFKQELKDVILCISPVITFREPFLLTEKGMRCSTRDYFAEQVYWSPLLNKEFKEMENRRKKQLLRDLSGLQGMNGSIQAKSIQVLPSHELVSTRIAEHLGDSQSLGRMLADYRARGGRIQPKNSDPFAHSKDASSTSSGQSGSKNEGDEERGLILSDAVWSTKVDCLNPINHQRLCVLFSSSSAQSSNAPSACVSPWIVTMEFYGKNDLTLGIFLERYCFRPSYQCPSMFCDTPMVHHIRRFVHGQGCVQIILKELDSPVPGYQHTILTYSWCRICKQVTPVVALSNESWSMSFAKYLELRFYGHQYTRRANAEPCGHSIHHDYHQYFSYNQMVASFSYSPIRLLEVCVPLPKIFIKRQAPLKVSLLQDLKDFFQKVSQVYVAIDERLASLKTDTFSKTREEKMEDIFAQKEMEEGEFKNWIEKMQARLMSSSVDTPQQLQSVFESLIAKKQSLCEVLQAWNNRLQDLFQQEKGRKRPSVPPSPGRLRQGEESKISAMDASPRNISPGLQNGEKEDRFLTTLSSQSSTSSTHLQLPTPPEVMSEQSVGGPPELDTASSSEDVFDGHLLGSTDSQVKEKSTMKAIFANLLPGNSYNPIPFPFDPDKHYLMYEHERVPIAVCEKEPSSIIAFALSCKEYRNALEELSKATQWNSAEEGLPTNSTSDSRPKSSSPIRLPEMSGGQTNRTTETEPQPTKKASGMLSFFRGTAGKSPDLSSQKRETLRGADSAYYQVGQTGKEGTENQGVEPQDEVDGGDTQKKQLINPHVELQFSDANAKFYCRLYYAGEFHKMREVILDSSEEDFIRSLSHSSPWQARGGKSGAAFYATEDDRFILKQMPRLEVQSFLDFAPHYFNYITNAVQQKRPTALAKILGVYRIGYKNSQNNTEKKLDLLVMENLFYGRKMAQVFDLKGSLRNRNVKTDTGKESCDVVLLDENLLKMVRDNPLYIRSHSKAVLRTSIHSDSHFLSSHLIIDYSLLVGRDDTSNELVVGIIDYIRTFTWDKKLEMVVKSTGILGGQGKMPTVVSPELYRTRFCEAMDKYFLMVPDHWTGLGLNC

SMILES	pEC50 [1]	C9 iPSC MN Survival hazard ratio [1]	pEC50 [2]	pIC50 [3]
Cc1cccc(-c2ccn(-c3cc(N4CCOCC4)n4nc(-c5ccncc5)cc4n3)n2)c1 [Example 14, 4-[5-[3-(m-tolyl)pyrazol-1-yl]-2-(4-pyridyl)pyrazolo[1,5-a]pyrimidin-7-yl]morpholine]	< 5.22	0.94	6.84	8.37
Cc1cccc(-c2ccn(-c3cc(N4CCOCC4)n4nc(-c5cccnc5)cc4n3)n2)c1 [Example 17, 4-(2-(pyridin-3-yl)-5-(3-(m-tolyl)-1H-pyrazol-1-yl)pyrazolo[1,5-a]pyrimidin-7-yl)morpholine]	6.00	0.82	7.02	8.17
Cc1cccc(-c2ccn(-c3cc(N4CCOCC4)n4nc(-c5ccccn5)cc4n3)n2)c1 [Example 18, 4-(2-(pyridin-2-yl)-5-(3-(m-tolyl)-1H-pyrazol-1-yl)pyrazolo[1,5-a]pyrimidin-7-yl)morpholine]	6.00	–	6.98	7.53
Cc1cccc(-c2ccn(-c3cc(N4CCOCC4)n4nc(C(=O)NC5CC5)cc4n3)n2)c1 [Example 20, N-cyclopropyl-7-morpholino-5-(3-(m-tolyl)-1H-pyrazol-1-yl)pyrazolo[1,5-a]pyrimidine-2-carboxamide]	–	0.85	6.99	7.52
Cc1cccc(-c2ccn(-c3cc(N4CCOCC4)n4nc(C(=O)N[C@H](C)C5CC5)cc4n3)n2)c1 [Example 21, (R)—N-(1-cyclopropylethyl)-7-morpholino-5-(3-(m-tolyl)-1H-pyrazol-1-yl)pyrazolo[1,5-a]pyrimidine-2-carboxamide]	–	–	6.96	7.67
Cc1cccc(-c2ccn(-c3cc(N4CCOCC4)n4nc(C(=O)N[C@@H](C)C5CC5)cc4n3)n2)c1 [Example 22, (S)—N-(1-cyclopropylethyl)-7-morpholino-5-(3-(m-tolyl)-1H-pyrazol-1-yl)pyrazolo[1,5-a]pyrimidine-2-carboxamide]	–	–	6.95	7.90
Cc1cccc(-c2ccn(-c3cc(N4CCOCC4)n4nc(C(=O)N5CCN(C)CC5)cc4n3)n2)c1 [Example 32, (4-methylpiperazin-1-yl) (7-morpholino-5-(3-(m-tolyl)-1H-pyrazol-1-yl)pyrazolo[1,5-a]pyrimidin-2-yl)methanone]	–	–	–	6.60
CON(C)C(=O)c1cc2nc(-n3ccc(-c4cccc(C)c4)n3)cc(N3CCOCC3)n2n1 [Example 33, N-methoxy-N-methyl-7-morpholino-5-(3-(m-tolyl)-1H-pyrazol-1-yl)pyrazolo[1,5-a]pyrimidine-2-carboxamide]	–	–	–	6.95
CONC(=O)c1cc2nc(-n3ccc(-c4cccc(C)c4)n3)cc(N3CCOCC3)n2n1 [Example 34, N-methoxy-7-morpholino-5-(3-(m-tolyl)-1H-pyrazol-1-yl)pyrazolo[1,5-a]pyrimidine-2-carboxamide]	–	0.82	–	7.18
Cc1cccc(-c2ccn(-c3cc(N4CCOCC4)n4nc(C(=O)NS(C)(=O)=O)cc4n3)n2)c1 [Example 35, N-(methylsulfonyl)-7-morpholino-5-(3-(m-tolyl)-1H-pyrazol-1-yl)pyrazolo[1,5-a]pyrimidine-2-carboxamide]	–	–	–	6.37
Cc1cccc(-c2ccn(-c3cc(N4CCOCC4)n4nc(C(=O)NC5CCCC5)cc4n3)n2)c1 [Example 36, N-cyclopentyl-7-morpholino-5-(3-(m-tolyl)-1H-pyrazol-1-yl)pyrazolo[1,5-a]pyrimidine-2-carboxamide]	–	–	7.17	7.67
Cc1cccc(-c2ccn(-c3cc(N4CCOCC4)n4nc(C(=O)N(C)C5CCCC5)cc4n3)n2)c1 [Example 37, N-cyclopentyl-N-methyl-7-morpholino-5-(3-(m-tolyl)-1H-pyrazol-1-yl)pyrazolo[1,5-a]pyrimidine-2-carboxamide]	–	–	–	6.67
Cc1cccc(-c2ccn(-c3cc(N4CCOCC4)n4nc(C(=O)NC(C)C)cc4n3)n2)c1 [Example 38, N-isopropyl-7-morpholino-5-(3-(m-tolyl)-1H-pyrazol-1-yl)pyrazolo[1,5-a]pyrimidine-2-carboxamide]	–	–	–	7.59
COCC(COC)NC(=O)c1cc2nc(-n3ccc(-c4cccc(C)c4)n3)cc(N3CCOCC3)n2n1 [Example 39, N-(1,3-dimethoxypropan-2-yl)-7-morpholino-5-(3-(m-tolyl)-1H-pyrazol-1-yl)pyrazolo[1,5-a]pyrimidine-2-carboxamide]	–	–	–	7.00
Cc1cccc(-c2ccn(-c3cc(N4CCOCC4)n4nc(C(=O)NCCN(C)C)cc4n3)n2)c1 [Example 40, N-(2-(dimethylamino)ethyl)-7-morpholino-5-(3-(m-tolyl)-1H-pyrazol-1-yl)pyrazolo[1,5-a]pyrimidine-2-carboxamide]	–	–	–	6.59
Cc1cccc(-c2ccn(-c3cc(N4CCOCC4)n4nc(C(=O)NCCCCN(C)C)cc4n3)n2)c1 [Example 41, N-(4-(dimethylamino)butyl)-7-morpholino-5-(3-(m-tolyl)-1H-pyrazol-1-yl)pyrazolo[1,5-a]pyrimidine-2-carboxamide]	–	–	7.17	7.49
Cc1cccc(-c2ccn(-c3cc(N4CCOCC4)n4nc(C(=O)NC5COC5)cc4n3)n2)c1 [Example 42, 7-morpholino-N-(oxetan-3-yl)-5-(3-(m-tolyl)-1H-pyrazol-1-yl)pyrazolo[1,5-a]pyrimidine-2-carboxamide]	–	–	–	7.20
Cc1cccc(-c2ccn(-c3cc(N4CCOCC4)n4nc(C(=O)NCC5COC5)cc4n3)n2)c1 [Example 43, 7-morpholino-N-(oxetan-3-ylmethyl)-5-(3-(m-tolyl)-1H-pyrazol-1-yl)pyrazolo[1,5-a]pyrimidine-2-carboxamide]	–	–	7.04	7.33
Cc1cccc(-c2ccn(-c3cc(N4CCOCC4)n4nc(C(=O)NCC5(CO)COC5)cc4n3)n2)c1 [Example 44, N-((3-(hydroxymethyl)oxetan-3-yl)methyl)-7-morpholino-5-(3-(m-tolyl)-1H-pyrazol-1-yl)pyrazolo[1,5-a]pyrimidine-2-carboxamide]	–	–	–	7.10
Cc1cccc(-c2ccn(-c3cc(N4CCOCC4)n4nc(C(=O)N5CC6(COC6)C5)cc4n3)n2)c1 [Example 45, (7-morpholino-5-(3-(m-tolyl)-1H-pyrazol-1-yl)pyrazolo[1,5-a]pyrimidin-2-yl) (2-oxa-6-azaspiro[3.3]heptan-6-yl)methanone]	–	–	–	6.98
Cc1cccc(-c2ccn(-c3cc(N4CCOCC4)n4nc(C(=O)N5CCC56COC6)cc4n3)n2)c1 [Example 46, (7-morpholino-5-(3-(m-tolyl)-1H-pyrazol-1-yl)pyrazolo[1,5-a]pyrimidin-2-yl) (6-oxa-1-azaspiro[3.3]heptan-1-yl)methanone]	–	–	–	6.95
Cc1cccc(-c2ccn(-c3cc(N4CCOCC4)n4nc(C(=O)NOC5COC5)cc4n3)n2)c1 [Example 47, 7-morpholino-N-(oxetan-3-yloxy)-5-(3-(m-tolyl)-1H-pyrazol-1-yl)pyrazolo[1,5-a]pyrimidine-2-carboxamide]	–	–	–	6.91
